Test results as given in ChEMBL document CHEMBL2157905, “Inhibition of therapeutically important polymerases with high affinity bis-intercalators” (Bioorg Med Chem Lett, 2012).
Starred links: 1 amine or outer side, 2 acyl side, 3 side chain; linkers in the order of their positions; H or OH if unused. Positions of bridges follow the written chain, without caps; N, C: chain ends. Non-standard residues stand in square brackets, D forms with d. Residues, ends and D or L forms follow the SMILES beside them. Chains are numbered I, II in the order given. Actinocin(9to1) = Cc1c2oc3c(C)ccc(C(=O)[*:1])c3nc-2c(C(=O)[*:2])c(N)c1=O; NMeV = CN[C@H](C(=O)O)C(C)C; Sar = CNCC(=O)O

What was measured:
[1] = target: T1, Human immunodeficiency virus type 1 reverse transcriptase (Human immunodeficiency virus 1, UniProt Q72547); test: Inhibition of HIV-1 reverse transcriptase using 25 ug/mL of Poly(rA).p(dT) (12 to 18) as substrate after 30 mins by single point PCR assay
[2] = target: T1, Human immunodeficiency virus type 1 reverse transcriptase; test: Inhibition of HIV-1 reverse transcriptase using 0.05 ug/mL of Poly(rA).p(dT) (12 to 18) as substrate after 30 mins by single point PCR assay
[3] = target: T1, Human immunodeficiency virus type 1 reverse transcriptase; test: Inhibition of HIV-1 reverse transcriptase using 25 ug/mL of Poly(rA).p(dT) (12 to 18) as substrate after 30 mins by single point PCR assay in presence of 340 uM base pair of calf thymus DNA
[4] = target: T1, Human immunodeficiency virus type 1 reverse transcriptase; test: Inhibition of HIV-1 reverse transcriptase using Poly(rA).p(dT) (12 to 18) as substrate after 30 mins by single point PCR assay
[5] = Inhibition of telomerase in human HeLa cell extract by fluorescence-based assay; type: cell-free
[6] = Inhibition of partially purified telomerase by fluorescence-based assay
[7] = target: T1, Human immunodeficiency virus type 1 reverse transcriptase; test: Inhibition of HIV-1 reverse transcriptase using 0.5 ug/mL of Poly(rA).p(dT) (12 to 18) as substrate after 30 mins by single point PCR assay
[8] = Inhibition of telomerase

Row | Compound | IC50 [2] [nM] | IC50 ([4]; read-out: IC50) [nM] | also measured
1 | Nc1ccc2c(c1)c(-c1ccccc1)[n+](CCCNCCNCCC[n+]1c(-c3ccccc3)c3cc(N)ccc3c3ccc(N)cc31)c1cc(N)ccc21 | 10.8 |  | IC50 [1]: 2300 nM; IC50 [3]: 8500 nM
2 | Cc1c2oc3c(C)c(N)cc(C(=O)N[C@@H]4C(=O)N[C@H](C(C)C)C(=O)N5CCC[C@H]5C(=O)N(C)CC(=O)N(C)[C@@H](C(C)C)C(=O)O[C@@H]4C)c3nc-2c(C(=O)N[C@@H]2C(=O)N[C@H](C(C)C)C(=O)N3CCC[C@H]3C(=O)N(C)CC(=O)N(C)[C@@H](C(C)C)C(=O)O[C@@H]2C)c(N)c1=O |  | 93000 | 
3 | O=C(O)c1ccc2cc3ccccc3cc2c1 |  |  | IC50 [4]: Not Active
4 | O=C(O)c1cccc2cc3ccccc3cc12 |  |  | IC50 [4]: Not Active
5 | O=C(O)c1c2ccccc2nc2ccccc12 |  |  | IC50 [4]: Not Active
6 | NC(=O)[C@H](CCCNC(=O)c1ccc(C[n+]2c(-c3ccccc3)c3cc(N)ccc3c3ccc(N)cc32)cc1)NC(=O)CCCCCNC(=O)[C@@H](N)CCCNC(=O)c1ccc(C[n+]2c(-c3ccccc3)c3cc(N)ccc3c3ccc(N)cc32)cc1 | 4.9 |  | 
7 | NC(=O)[C@H](CCCNC(=O)c1ccc(C[n+]2c(-c3ccccc3)c3cc(N)ccc3c3ccc(N)cc32)cc1)NC(=O)CCNC(=O)C(N)CNC(=O)c1ccc(C[n+]2c(-c3ccccc3)c3cc(N)ccc3c3ccc(N)cc32)cc1 (stereo not given in full) | 9.2 |  | 
8 | NC(=O)[C@H](CCCCNC(=O)c1ccc(C[n+]2c(-c3ccccc3)c3cc(N)ccc3c3ccc(N)cc32)cc1)NC(=O)CCCNC(=O)[C@@H](N)CCCCNC(=O)c1ccc(C[n+]2c(-c3ccccc3)c3cc(N)ccc3c3ccc(N)cc32)cc1 | 10.5 |  | 
9 | NC(=O)C(CNC(=O)c1ccc(C[n+]2c(-c3ccccc3)c3cc(N)ccc3c3ccc(N)cc32)cc1)NC(=O)[C@@H](N)CCCNC(=O)c1ccc(C[n+]2c(-c3ccccc3)c3cc(N)ccc3c3ccc(N)cc32)cc1 (stereo not given in full) | 22.3 |  | 
10 | NC(=O)C(CNC(=O)c1ccc(C[n+]2c(-c3ccccc3)c3cc(N)ccc3c3ccc(N)cc32)cc1)NC(=O)CCCCCNC(=O)[C@@H](N)CCCCNC(=O)c1ccc(C[n+]2c(-c3ccccc3)c3cc(N)ccc3c3ccc(N)cc32)cc1 (stereo not given in full) | 30.7 |  | 
11 | NCCCC[C@H](NC(=O)CCNC(=O)C(N)CN)C(N)=O (stereo not given in full) |  |  | IC50 [5]: 600 nM; IC50 [6]: 100 nM
12 | CCOc1ccc2nc3cc(N)ccc3c(N)c2c1 |  | 20000 | 
13 | COc1ccc2nc3cc(Cl)ccc3c(N)c2c1 |  |  | IC50 [4]: Not Active
14 | COc1ccc2nc3cc(Cl)ccc3c(NCCCNCCCCNCCCNc3c4ccc(Cl)cc4nc4ccc(OC)cc34)c2c1 [ACRIDINE DIMER] | 220 |  | IC50 [1]: 12900 nM; IC50 [7]: 400 nM
15 | CN(C)c1ccc2cc3ccc(N(C)C)cc3nc2c1 [ACRIDINE ORANGE] |  | 200000 | 
16 | Cc1cc2cc3cc(C)c(N)cc3nc2cc1N [ACRIDINE YELLOW] |  | 32000 | 
17 | Cc1c2oc3c(C)ccc(C(=O)N[C@@H]4C(=O)N[C@H](C(C)C)C(=O)N5CCC[C@H]5C(=O)N(C)CC(=O)N(C)[C@@H](C(C)C)C(=O)O[C@@H]4C)c3nc-2c(C(=O)N[C@@H]2C(=O)N[C@H](C(C)C)C(=O)N3CCC[C@H]3C(=O)N(C)CC(=O)N(C)[C@@H](C(C)C)C(=O)O[C@@H]2C)c(N)c1=O [DACTINOMYCIN] (I: T[dV]P[Sar][NMeV] / II: T[dV]P[Sar][NMeV]; ester I:1-I:C, II:1-II:C; linker I:N-II:N via Actinocin(9to1)) |  | 270000 | 
18 | COc1cccc2c1C(=O)c1c(O)c3c(c(O)c1C2=O)C[C@@](O)(C(C)=O)C[C@@H]3O[C@H]1C[C@H](N)[C@H](O)[C@H](C)O1 [DAUNORUBICIN] |  | 139000 | 
19 | Cc1c2ccncc2c(C)c2c1[nH]c1ccccc12 [ELLIPTECINE] |  | 182000 | 
20 | CC[n+]1c(-c2ccccc2)c2cc(N)ccc2c2ccc(N)cc21 [HOMIDIUM BROMIDE] |  | 2000 | 
21 | CC[n+]1c(-c2ccccc2)c2cc(N)ccc2c2ccc(N)cc21 [HOMIDIUM] | 2100 |  | IC50 [8]: 3300 nM; IC50 [1]: 2200 nM; IC50 [7]: 1800 nM
22 | CC[N+](C)(CC)CCC[n+]1c(-c2ccccc2)c2cc(N)ccc2c2ccc(N)cc21 [PROPIDIUM] |  | 3000 | 
